Experimental data taken from PubChem BioAssay (NCI).
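Assay format: 96-well plates, 48-hour exposure. At the TGI there is no net growth.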

What was measured:
Test in all cases: growth of human tumour cells (NCI), 48 h
[1] = system: 786-0 renal
[2] = system: A498 renal
[3] = system: A549 NSCLC
[4] = system: ACHN renal
[5] = system: CAKI-1 renal
[6] = system: CCRF-CEM leukemia
[7] = system: COLO 205 colon
[8] = system: DU-145 prostate
[9] = system: EKVX NSCLC
[10] = system: HCC-2998 colon
[11] = system: HCT-116 colon
[12] = system: HCT-15 colon
[13] = system: HL-60(TB) leukemia
[14] = system: HOP-62 NSCLC
[15] = system: HOP-92 NSCLC
[16] = system: HS 578T breast
[17] = system: HT29 colon
[18] = system: IGROV1 ovarian
[19] = system: K-562 leukemia
[20] = system: KM12 colon
[21] = system: LOX IMVI melanoma
[22] = system: M14 melanoma
[23] = system: MALME-3M melanoma
[24] = system: MCF7 breast
[25] = system: MDA-MB-231 breast
[26] = system: MDA-MB-435
[27] = system: MDA-N
[28] = system: MOLT-4 leukemia
[29] = system: NCI-H226 lung
[30] = system: NCI-H23 lung
[31] = system: NCI-H460 lung
[32] = system: NCI-H522 lung
[33] = system: NCI/ADR-RES ovarian
[34] = system: OVCAR-3 ovarian
[35] = system: OVCAR-4 ovarian
[36] = system: OVCAR-5 ovarian
[37] = system: OVCAR-8 ovarian
[38] = system: PC-3 prostate
[39] = system: RPMI-8226 leukemia
[40] = system: RXF 393 renal
[41] = system: SF-268 CNS
[42] = system: SF-295 CNS
[43] = system: SF-539 CNS
[44] = system: SK-MEL-28 melanoma
[45] = system: SK-MEL-5 melanoma
[46] = system: SK-OV-3 ovarian
[47] = system: SN12C renal
[48] = system: SNB-19 CNS
[49] = system: SNB-75 CNS
[50] = system: SR leukemia
[51] = system: SW-620 colon
[52] = system: T-47D breast
[53] = system: TK-10 renal
[54] = system: U251 CNS
[55] = system: UACC-257 melanoma
[56] = system: UACC-62 melanoma
[57] = system: UO-31 renal
[58] = system: SK-MEL-2 melanoma

Compound CCCCCc1c(Cl)nc(Cl)nc1Cl has a TGI [1] of 12.8 µM, a TGI [2] of 34.7 µM and a TGI [3] greater than 92.3 µM. The TGI [4] was 77.7 µM, the TGI [5] was 8.6 µM and the TGI [6] was 0.65 µM. The TGI [7] was 27 µM, the TGI [8] was 45.5 µM and the TGI [9] was 52 µM. For the same compound, the TGI [10] was 27 µM, the TGI [11] was 14.1 µM and the TGI [12] was 29.9 µM. The TGI [13] was 5.93 µM, the TGI [14] was 39.7 µM and the TGI [15] was 15.3 µM. For the same compound, the TGI [16] was greater than 100 µM, the TGI [17] was 18.5 µM and the TGI [18] was 31.9 µM. The TGI [19] was 7.45 µM, the TGI [20] was 28.6 µM and the TGI [21] was 6.01 µM. The TGI [22] was 5.46 µM, the TGI [23] was 28.1 µM and the TGI [24] was 27.3 µM. It also gave a TGI [25] of 17.8 µM, a TGI [26] of 6.98 µM and a TGI [27] of 16.6 µM. The TGI [28] was 1.01 µM, the TGI [29] was 6.02 µM and the TGI [30] was 16 µM. It also gave a TGI [31] of 51.9 µM, a TGI [32] of 6.61 µM and a TGI [33] of 46.3 µM. It also gave a TGI [34] of 30.8 µM, a TGI [35] of 43 µM and a TGI [36] of 31.1 µM. The TGI [37] was 25.9 µM, the TGI [38] was 36.9 µM and the TGI [39] was 12.3 µM. It also gave a TGI [40] of 23.7 µM, a TGI [41] of 49.2 µM and a TGI [42] of 53.7 µM. For the same compound, the TGI [43] was 29.9 µM, the TGI [44] was 46.5 µM and the TGI [45] was 18.1 µM. The TGI [46] was 31.8 µM, the TGI [47] was 10.8 µM and the TGI [48] was 38.9 µM. It also gave a TGI [49] of 93.1 µM, a TGI [50] of 0.86 µM and a TGI [51] of 26.2 µM. The TGI [52] was 52.2 µM, the TGI [53] was 32.2 µM and the TGI [54] was 25.1 µM. It also gave a TGI [55] of 29.7 µM, a TGI [56] of 43.3 µM and a TGI [57] of 37.9 µM.

Compound Clc1ccc(Cl)c(N=Nc2cc3c4c(c2)CCCN4CCC3)c1 has a TGI [1] greater than 10 µM, a TGI [2] greater than 10 µM and a TGI [3] greater than 10 µM. For the same compound, the TGI [4] was greater than 10 µM, the TGI [5] was greater than 10 µM and the TGI [6] was greater than 10 µM. It also gave a TGI [7] greater than 10 µM, a TGI [8] greater than 10 µM and a TGI [9] greater than 10 µM. For the same compound, the TGI [10] was greater than 10 µM, the TGI [11] was greater than 10 µM and the TGI [12] was greater than 10 µM. The TGI [13] was greater than 10 µM, the TGI [14] was greater than 10 µM and the TGI [15] was greater than 10 µM. It also gave a TGI [16] greater than 10 µM, a TGI [17] greater than 10 µM and a TGI [18] greater than 10 µM. It also gave a TGI [19] greater than 10 µM, a TGI [20] greater than 10 µM and a TGI [21] greater than 10 µM. It also gave a TGI [22] greater than 10 µM, a TGI [23] greater than 10 µM and a TGI [24] greater than 10 µM. It also gave a TGI [25] greater than 10 µM, a TGI [26] greater than 10 µM and a TGI [27] greater than 10 µM. For the same compound, the TGI [28] was greater than 10 µM, the TGI [29] was greater than 10 µM and the TGI [30] was greater than 10 µM. For the same compound, the TGI [31] was greater than 10 µM, the TGI [32] was greater than 10 µM and the TGI [33] was greater than 10 µM. The TGI [34] was greater than 10 µM, the TGI [35] was greater than 10 µM and the TGI [37] was greater than 10 µM. The TGI [38] was greater than 10 µM, the TGI [39] was greater than 10 µM and the TGI [40] was greater than 10 µM. For the same compound, the TGI [41] was greater than 10 µM, the TGI [42] was greater than 10 µM and the TGI [43] was greater than 10 µM. The TGI [58] was greater than 10 µM, the TGI [44] was greater than 10 µM and the TGI [45] was greater than 10 µM. It also gave a TGI [46] greater than 10 µM, a TGI [47] greater than 10 µM and a TGI [48] greater than 10 µM. For the same compound, the TGI [49] was greater than 10 µM, the TGI [50] was greater than 10 µM and the TGI [51] was greater than 10 µM. It also gave a TGI [52] greater than 10 µM, a TGI [53] greater than 10 µM and a TGI [54] greater than 10 µM. For the same compound, the TGI [55] was greater than 10 µM, the TGI [56] was greater than 10 µM and the TGI [57] was greater than 10 µM.
